Measured values from patent publication US4263280A, “Synergistic mixtures” (priority 1978, dated 1981).
Where a name gives a salt, the structure may show the parent alone.

Experiments:
[1] = known β-lactamase inhibitors themselves; cited from earlier work
[2] = test system: Pseudomonas aeruginosa 799A; assay: in vitro MIC, chessboard microdilution, Pseudomonas aeruginosa 799A; assay type: cell-based; settings: for MIC: Pseudomonas aeruginosa, 799A, alone, 18 hours, 37° C., read-out: MIC, antibiotic alone
Description: (§1) The combination substances A and B are diluted in DST broth OXOID in chessboard arrangement with the aid of microtitre system in 1:2 steps. All the concentrations of substance A are combined with all the concentrations of substance B and then inoculated with a standardised bacteria suspension (final concentration about 10^4 bacilli/ml). After incubation for 18 hours at 37° C., the inhibition of the bacterial growth is determined. The inhibiting concentrations are converted by the method of Kerry et al. (J. Antimicrob. […] By way of example, a number of the MIC values for the action of cefsulodin sodium, mecillinam, mezlocillin and gentamicin alone against a number of micro-organisms, as well as the MIC values for a number of mixtures in which synergism occurs, are reported in Table 1.

Escherichia coli 12-44 = assay: in vitro MIC, chessboard microdilution, Escherichia coli 12-44; assay type: cell-based; settings: for MIC: Escherichia coli, 1244, alone, 18 hours, 37° C., read-out: MIC, antibiotic alone
Description: as §1

[3] = test system: Kiebsiella pneumoniae 1132; assay: in vitro MIC, chessboard microdilution, Klebsiella pneumoniae 1132; assay type: cell-based; settings: for MIC: Klebsiella pneumoniae, 1132, alone, 18 hours, 37° C., read-out: MIC, antibiotic alone
Description: as §1

[4] = test system: Klebsiella pneumoniae 1136; assay: in vitro MIC, chessboard microdilution, Klebsiella pneumoniae 1136; assay type: cell-based; settings: for MIC: Klebsiella pneumoniae, 1136, alone, 18 hours, 37° C., read-out: MIC, antibiotic alone
Description: as §1

Proteus rettgeri 1121 = assay: in vitro MIC, chessboard microdilution, Proteus rettgeri 1121; assay type: cell-based; settings: for MIC: Providencia rettgeri, 1121, read-out: MIC, antibiotic alone
Description: as §1

[5] = test system: Pseudomonas aeruginosa G 121; assay: in vitro MIC, chessboard microdilution, Pseudomonas aeruginosa G 121; assay type: cell-based; settings: for MIC: Pseudomonas aeruginosa, G121, alone, 18 hours, 37° C., read-out: MIC, antibiotic alone
Description: as §1

Staphylococcus aureus = assay: in vitro MIC, chessboard microdilution, Staphylococcus aureus; assay type: cell-based; settings: for MIC: Staphylococcus aureus, alone, 18 hours, 37° C., read-out: MIC, antibiotic alone
Description: as §1

Klebsiella pneumoniae 1 = assay: in vitro MIC, chessboard microdilution, Klebsiella pneumoniae 1; assay type: cell-based; settings: for MIC: Klebsiella pneumoniae, 1, alone, 18 hours, 37° C., read-out: MIC, antibiotic alone
Description: as §1

Proteus mirabilis 1077 = assay: in vitro MIC, chessboard microdilution, Proteus mirabilis 1077; assay type: cell-based; settings: for MIC: Proteus mirabilis, 1077, alone, 18 hours, 37° C., read-out: MIC, antibiotic alone
Description: as §1

[6] = test system: Pseudomonas aeruginosa 410; assay: in vitro MIC, chessboard microdilution, Pseudomonas aeruginosa 410; assay type: cell-based
Description: as §1

[7] = test system: Pseudomonas aeruginosa 1140; assay: in vitro MIC, chessboard microdilution, Pseudomonas aeruginosa 1140; assay type: cell-based
Description: as §1

Escherichia coli 576 = assay: in vitro MIC, chessboard microdilution, Escherichia coli 576; assay type: cell-based
Description: as §1

Escherichia coli 205 = assay: systemic infection in mice, survival, Escherichia coli 205; assay type: in vivo; settings: fifth day
Description: (§2) The combination substances A and B are diluted in 1:3 to 1:3.3 steps such that the average concentration contains the respective amount of substance A and substance B corresponding to the ED50.
(§3) Female MF 2 mice weighing 18 to 22 g are divided at random into groups (n=20) and infected intraperitoneally with a standardised bacteria suspension which, according to strain, represents 5 to >20 LD50.
(§4) Immediately after the infection, and 3 hours later, the mice are treated in groups subcutaneously with dilutions of substances A and B as well as with combinations thereof. These combinations are prepared shortly before administration by mixing each dilution of substance A with each dilution of substance B. The survival rates are determined on the fifth day after the infection. The survival rates of mice which are determined with each of substances A and B alone are compared with those obtained with the combinations of these substances. A combination which has protected more animals from death than would be expected from the independent action of the substances, is designated as having synergistic action.
(§5) The survival rates, expressed as percentages of surviving animals, found in infections with a number of pure micro-organisms and in polyinfections is reported in Table 2 for cefsulodin sodium, mecillinam, mezlocillin, gentamicin and CGP 14 221/E, as well as for corresponding mixtures.

[8] = test system: Escherichia coli 205 RTEM^+; assay: systemic infection in mice, survival, Escherichia coli 205 RTEM+; assay type: in vivo; settings: fifth day
Description: as §2, §3, §4, §5

[9] = test system: Klebsiella pneumoniae 329; assay: systemic infection in mice, survival, Klebsiella pneumoniae 329; assay type: in vivo; settings: fifth day
Description: as §2, §3, §4, §5

[10] = test system: Klebsiella pneumoniae 327; assay: systemic infection in mice, survival, Klebsiella pneumoniae 327; assay type: in vivo; settings: fifth day
Description: as §2, §3, §4, §5

[11] = test system: Klebsiella pneumoniae 329 + Escherichia coli 205; assay: systemic polyinfection in mice, survival, Klebsiella pneumoniae 329 + Escherichia coli 205; assay type: in vivo; settings: fifth day
Description: as §2, §3, §4, §5

[12] = test system: Pseudomonas aeruginosa + Escherichia coli; assay: experimental pyelonephritis (polyinfection) in mice, Pseudomonas aeruginosa + Escherichia coli; assay type: in vivo; settings: percentage of animals
Description: (§6) Mice are treated intravenously with 10 mg/kg of carrageenin. Seven days later they are infected with a standardised suspension of bacteria. […] Two days after the last treatment, the mice are sacrificed, dissected and examined for the number of germs in the kidneys.

[13] = test system: Pseudomonas aeruginosa + Klebsiella pneumoniae; assay: experimental pyelonephritis (polyinfection) in mice, Pseudomonas aeruginosa + Klebsiella pneumoniae; assay type: in vivo; settings: percentage of animals
Description: as §6

[14] = test system: Gram-negative cocci, Gram-positive cocci and bacteria, and especially against Pseudomonas strains; settings: carbenicillin-sensitive and carbenicillin-resistant Pseudomonas; cited from earlier work
[15] = test system: enterobacteria, such as Escherichia coli and Klebsiella pneumoniae; settings: cited from earlier work
[16] = test system: anaerobei, for example Bacteroides; settings: cited from earlier work
[17] = in combination with Mecillinam 0.25 mcg/ml
[18] = in combination with Gentamicin 0.25 mcg/ml
[19] = in combination with Cefsulodin-Na 12.5 mcg/ml

Compound: CC1(C)[C@H](C(=O)O)N2C(=O)C[C@H]2S1(=O)=O [penicillanic acid 4,4-dioxide]
- antibiotic action [1]: insignificant antibiotic action

Compound: NC(=O)c1cc[n+](CC2=C(C(=O)O)N3C(=O)[C@@H](NC(=O)[C@@H](c4ccccc4)S(=O)(=O)[O-])[C@H]3SC2)cc1 [Cefsulodin-Na, sodium salt of N-[7β-(α-sulfophenylacetamido)ceph-3-em-3-yl-methyl]-4'-carbamoylpyridinium-4-carboxylate]
- MIC [2]: 1 µg/mL
- MIC, antibiotic A in combination with B ([2]; in combination with Mecillinam 32 mcg/ml): 0.25 µg/mL
- MIC (Escherichia coli 12-44): 25 µg/mL
- MIC, antibiotic A in combination with B (Escherichia coli 12-44; in combination with Mecillinam 0.12 mcg/ml): 12.5 µg/mL
- MIC [3]: 25 µg/mL
- MIC, antibiotic A in combination with B [3, 17]: 6.2 µg/mL
- MIC [4]: 50 µg/mL
- MIC, antibiotic A in combination with B [4, 17]: 12.5 µg/mL
- MIC (Proteus rettgeri 1121; alone, 18 hours, 37° C.): 12.5 µg/mL
- MIC, antibiotic A in combination with B (Proteus rettgeri 1121; in combination with Gentamicin 0.5 mcg/ml): 0.8 µg/mL
- MIC, antibiotic A in combination with B (Proteus rettgeri 1121; in combination with Mecillinam 1.6 mcg/ml): 0.4 µg/mL
- MIC [5]: 1.2 µg/mL
- MIC, antibiotic A in combination with B ([5]; in combination with Mezlocillin 12.5 mcg/ml): 0.04 µg/mL
- MIC (Staphylococcus aureus): 3.2 µg/mL
- MIC, antibiotic A in combination with B (Staphylococcus aureus; in combination with Mezlocillin 1.6 mcg/ml): 0.2 µg/mL
- MIC (Klebsiella pneumoniae 1): 50 µg/mL
- MIC, antibiotic A in combination with B (Klebsiella pneumoniae 1; in combination with Mezlocillin 0.16 mcg/ml): 25 µg/mL
- MIC (Proteus mirabilis 1077): 50 µg/mL
- MIC, antibiotic A in combination with B (Proteus mirabilis 1077; in combination with Mezlocillin 0.25 mcg/ml): 12.5 µg/mL
- MIC ([6]; Pseudomonas aeruginosa, 410, alone, 18 hours, 37° C., read-out: MIC, antibiotic alone): 2 µg/mL
- MIC, antibiotic A in combination with B [6, 18]: 0.06 µg/mL
- MIC ([7]; Pseudomonas aeruginosa, 1140, alone, 18 hours, 37° C., read-out: MIC, antibiotic alone): 8 µg/mL
- MIC, antibiotic A in combination with B ([7]; in combination with Gentamicin 4 mcg/ml): 2 µg/mL
- MIC (Escherichia coli 576; Escherichia coli, 576, alone, 18 hours, 37° C., read-out: MIC, antibiotic alone): 64 µg/mL
- MIC, antibiotic A in combination with B (Escherichia coli 576; [18]): 32 µg/mL
- surviving animals, antibiotic alone (Escherichia coli 205; 25 mg/kg s.c.): 5%
- surviving animals, antibiotic alone (Escherichia coli 205; 40 mg/kg s.c.): 10%
- surviving animals, antibiotic alone ([8]; 40 mg/kg s.c.): 0%
- surviving animals, antibiotic alone ([9]; 40 mg/kg s.c.): 0%
- surviving animals, antibiotic alone ([9]; 50 mg/kg s.c.): 0%
- surviving animals, antibiotic alone ([9]; 80 mg/kg s.c.): 5%
- surviving animals, antibiotic alone ([10]; 50 mg/kg s.c.): 0%
- surviving animals, antibiotic alone ([10]; 100 mg/kg s.c.): 0%
- surviving animals, antibiotic alone ([11]; 100 mg/kg s.c.): 0%
- Clearance of the kidneys from both micro-organisms, antibiotic alone ([12]; 25 mg/kg s.c.): 0%
- Clearance of the kidneys from both micro-organisms, antibiotic alone ([13]; 25 mg/kg s.c.): 10%
- antibiotic action [14]: directed against Gram-negative cocci, Gram-positive cocci and bacteria, and especially against Pseudomonas strains, both carbenicillin-sensitive and carbenicillin-resistant
- antibiotic action against enterobacteria [15]: relatively insignificant action
- antibiotic action against anaerobei [16]: relatively insignificant action

Compound: Gentamicin
- MIC, antibiotic alone (Proteus rettgeri 1121; alone, 18 hours, 37° C.): 1 µg/mL
- MIC, antibiotic B in combination with A (Proteus rettgeri 1121; in combination with Cefsulodin-Na 0.8 mcg/ml): 0.5 µg/mL
- MIC, antibiotic alone ([6]; alone, 18 hours, 37° C.): 0.5 µg/mL
- MIC, antibiotic B in combination with A ([6]; in combination with Cefsulodin-Na 0.06 mcg/ml): 0.25 µg/mL
- MIC, antibiotic alone ([7]; alone, 18 hours, 37° C.): 32 µg/mL
- MIC, antibiotic B in combination with A ([7]; in combination with Cefsulodin-Na 2 mcg/ml): 4 µg/mL
- MIC, antibiotic alone (Escherichia coli 576; alone, 18 hours, 37° C.): 2 µg/mL
- MIC, antibiotic B in combination with A (Escherichia coli 576; in combination with Cefsulodin-Na 32 mcg/ml): 0.25 µg/mL
- surviving animals, antibiotic alone ([9]; 0.2 mg/kg s.c.): 30%
- Clearance of the kidneys from both micro-organisms, antibiotic alone ([12]; 1 mg/kg s.c.): 0%
- Clearance of the kidneys from both micro-organisms, antibiotic alone ([13]; 0.5 mg/kg s.c.): 0%
- Clearance of the kidneys from both micro-organisms, antibiotic alone ([13]; 2.5 mg/kg s.c.): 40%

Compound: O=C(O)[C@H]1/C(=C/CO)O[C@@H]2CC(=O)N21 [clavulanic acid]
- antibiotic action [1]: insignificant antibiotic action

Compound: CC1(C)S[C@@H]2[C@H](/N=C/N3CCCCCC3)C(=O)N2[C@H]1C(=O)O [Mecillinam]
- MIC [2]: 1000 µg/mL
- MIC, antibiotic B in combination with A ([2]; in combination with Cefsulodin-Na 0.25 mcg/ml): 32 µg/mL
- MIC (Escherichia coli 12-44): 2 µg/mL
- MIC, antibiotic B in combination with A (Escherichia coli 12-44; [19]): 0.12 µg/mL
- MIC [3]: 1 µg/mL
- MIC, antibiotic B in combination with A ([3]; in combination with Cefsulodin-Na 6.2 mcg/ml): 0.25 µg/mL
- MIC [4]: 1 µg/mL
- MIC, antibiotic B in combination with A [4, 19]: 0.25 µg/mL
- MIC (Proteus rettgeri 1121; alone, 18 hours, 37° C.): 3.2 µg/mL
- MIC, antibiotic B in combination with A (Proteus rettgeri 1121; in combination with Cefsulodin-Na 0.4 mcg/ml): 1.6 µg/mL
- surviving animals, antibiotic alone (Escherichia coli 205; 1 mg/kg s.c.): 0%
- surviving animals, antibiotic alone (Escherichia coli 205; 2 mg/kg s.c.): 0%
- surviving animals, antibiotic alone ([9]; 300 mg/kg s.c.): 0%

Compound: CC1(C)S[C@@H]2[C@H](NC(=O)[C@H](NC(=O)N3CCN(S(C)(=O)=O)C3=O)c3ccccc3)C(=O)N2[C@H]1C(=O)O [Mezlocillin]
- MIC [5]: 25 µg/mL
- MIC, antibiotic B in combination with A ([5]; in combination with Cefsulodin-Na 0.04 mcg/ml): 12.5 µg/mL
- MIC (Staphylococcus aureus): 3.2 µg/mL
- MIC, antibiotic B in combination with A (Staphylococcus aureus; in combination with Cefsulodin-Na 0.2 mcg/ml): 1.6 µg/mL
- MIC (Klebsiella pneumoniae 1): 1.25 µg/mL
- MIC, antibiotic B in combination with A (Klebsiella pneumoniae 1; in combination with Cefsulodin-Na 25 mcg/ml): 0.16 µg/mL
- MIC (Proteus mirabilis 1077): 1 µg/mL
- MIC, antibiotic B in combination with A (Proteus mirabilis 1077; [19]): 0.25 µg/mL
- surviving animals, antibiotic alone (Escherichia coli 205; 50 mg/kg s.c.): 0%
- surviving animals, antibiotic alone ([9]; 300 mg/kg s.c.): 0%

Compound: CN(C)CCn1nnnc1SCC1=C(C(=O)O)N2C(=O)[C@@H](NC(=O)Cc3csc(N)n3)[C@H]2SC1 [CGP 14221/E, 7[2(2-lmino-1,3-thiazolin-4-yl)acetamido3-[1(3-dimethylamino)-tetrazol-5-ylthio-methyl3-cephem-4-carboxylic acid hydrochloride]
- surviving animals, antibiotic alone (Escherichia coli 205; 0.62 mg/kg s.c.): 0%
- surviving animals, antibiotic alone (Escherichia coli 205; 2.5 mg/kg s.c.): 0%
- surviving animals, antibiotic alone ([8]; 1.2 mg/kg s.c.): 10%
- surviving animals, antibiotic alone ([10]; 20 mg/kg s.c.): 0%
- surviving animals, antibiotic alone ([10]; 40 mg/kg s.c.): 0%
- surviving animals, antibiotic alone ([11]; 20 mg/kg s.c.): 0%
